Drawing on patent publication US8101774B2, “Ester derivatives and medicinal use thereof” (Japan Tobacco Inc., priority 2004, dated 2012), this text covers IC50 for 20 compounds.

Molecules are shown by their SMILES.

The experiment deals with T1, Microsomal triglyceride transfer protein (MTP) from human small intestine microsome (Homo sapiens, UniProt P55157).
T1 construct: Human small intestine microsome was dialyzed against 10 mM phosphate buffer; tissue Tissue Transforming Technologies, Inc; host or cells: human small intestine microsome
In words: Inhibition test of interliposomal triglyceride (TG) transfer activity by MTP. It counts as biochemical. The settings on record: purified MTP from human small intestine microsome, 37° C., 1.5 hours. The procedure: Microsomal triglyceride transfer protein (MTP) from human small intestine microsome (manufactured by Tissue Transforming Technologies, Inc.) was purified in such a way described below. Human small intestine microsome was dialyzed against 10 mM phosphate buffer (300 mL, pH 6.8) twice for about 2 hours and once for further not less than 12 hours, at about 4° C. After dialysis, the mixture was centrifuged at 4° C. and 15,000×g for 5 minutes and then the supernatant was recovered. The previously recovered supernatant was purified by column chromatography on diethylaminoethyl (DEAE) Sepharose using FPLC (Fast Performance Liquid Chromatography) system, and the purified MTP was used for the test as described below.
Small unilamellar-vesicle (SUV) liposome (hereinafter described as donor, containing 0.25% (mol/mol) triolein and 5% (mol/mol) cardiolipin) constituted by triolein labeled with ^14C and non-labeled SUV liposome (hereinafter described as acceptor, containing […] triolein) were prepared in such a way described below.
Firstly, in order to prepare the donor, there were volatilized under a stream of nitrogen gas a phosphatidylcholine solution containing phosphatidylcholine labeled with ^3H, a cardiolipin solution, and a triolein solution containing triolein labeled with ^14C (each solution had been already dissolved in an appropriate organic solvent), or in order to prepare the acceptor, there were volatilized under nitrogen flow a phosphatidylcholine solution containing phosphatidylcholine labeled with ^3H and a cardiolipin solution (each solution had been already dissolved in an appropriate organic solvent). An appropriate amount of a reaction buffer (15 mM Tris-HCl buffer containing 1 mM EDTA.Na2, 40 mM NaCl, and 0.5% (w/v) bovine serum albumin, pH 7.4) was added thereto to be emulsified. The emulsions were treated with ultrasonication under ice-cooling and centrifuged at 4° C. and 159,000×g for 2 hours. Each of the resulting supernatant was used for donor or acceptor.
Each radioactivity in the acceptor and the donor was measured by liquid scintillation counter, and a mixed solution of the acceptor and the donor was prepared with a reaction buffer so as to be a donor-derived radioactivity of 16,000 dpm/400 μL and a acceptor-derived radioactivity of 4,000 dpm/[…]. 400 μL of the mixed solution of the donor and the acceptor, 45 μL of the reaction buffer, 50 μL of MTP (20 μg/mL), and 5 μL of a sample dissolved in DMSO (dimethyl sulfoxide) or 5 μL of DMSO was mixed (total amount: 500 μL). The mixture was incubated at 37° C. for 1.5 hours. After completion of the incubation, 1.25 mL of a suspension of DEAE cellulose (66.7% (v/v)) in 15 mM Tris-HCl buffer (pH 7.4) containing 1 mM EDTA.Na2 was added to the above solution. The mixture was centrifuged to separate the donor (adsorbed on the DEAE cellulose to precipitate) and the acceptor (the supernatant). The radioactivity in the acceptor was measured by liquid scintillation counter. The value obtained by subtracting the radioactivity in a blank group from the radioactivity in the acceptor of a DMSO group was determined as MTP-mediated TG transfer activity, and it was compared with the value obtained by subtracting the radioactivity in the blank group from the radioactivity in a sample group. Here, the blank was prepared by adding 10 mM phosphate buffer (pH 6.8) containing 250 mM NaCl in place of MTP. Inhibition rate (%) was calculated from values obtained according to the following equation. Inhibition rate(%)=(1 minus((radioactivity of sample group minus radioactivity of blank group)/(radioactivity of DMSO group minus radioactivity of blank group)))×100.
50% Inhibition rate (IC50) was determined on the basis of the above equation.

T1 sequence (P55157 19-894): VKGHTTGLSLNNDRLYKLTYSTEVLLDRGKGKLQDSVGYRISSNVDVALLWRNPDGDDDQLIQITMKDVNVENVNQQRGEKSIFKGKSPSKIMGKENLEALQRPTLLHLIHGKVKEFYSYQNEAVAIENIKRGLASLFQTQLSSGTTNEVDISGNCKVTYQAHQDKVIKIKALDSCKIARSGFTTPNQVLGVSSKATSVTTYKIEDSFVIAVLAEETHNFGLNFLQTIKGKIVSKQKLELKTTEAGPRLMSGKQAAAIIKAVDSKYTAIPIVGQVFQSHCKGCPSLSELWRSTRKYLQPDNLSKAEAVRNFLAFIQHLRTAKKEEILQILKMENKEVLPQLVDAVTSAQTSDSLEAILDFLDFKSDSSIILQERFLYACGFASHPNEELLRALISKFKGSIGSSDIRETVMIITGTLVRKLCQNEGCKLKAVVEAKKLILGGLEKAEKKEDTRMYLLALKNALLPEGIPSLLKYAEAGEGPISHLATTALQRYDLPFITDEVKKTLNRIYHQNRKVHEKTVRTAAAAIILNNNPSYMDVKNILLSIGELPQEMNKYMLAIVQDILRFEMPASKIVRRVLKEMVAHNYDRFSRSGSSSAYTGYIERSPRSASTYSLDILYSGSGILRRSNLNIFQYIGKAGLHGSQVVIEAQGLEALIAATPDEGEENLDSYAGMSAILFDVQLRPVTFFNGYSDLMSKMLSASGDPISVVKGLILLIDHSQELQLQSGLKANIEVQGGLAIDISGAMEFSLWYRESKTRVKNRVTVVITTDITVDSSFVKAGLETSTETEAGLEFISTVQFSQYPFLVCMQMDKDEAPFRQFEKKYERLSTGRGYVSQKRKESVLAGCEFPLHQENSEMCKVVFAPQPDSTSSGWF
T1 sequence (P07237 18-508 partner): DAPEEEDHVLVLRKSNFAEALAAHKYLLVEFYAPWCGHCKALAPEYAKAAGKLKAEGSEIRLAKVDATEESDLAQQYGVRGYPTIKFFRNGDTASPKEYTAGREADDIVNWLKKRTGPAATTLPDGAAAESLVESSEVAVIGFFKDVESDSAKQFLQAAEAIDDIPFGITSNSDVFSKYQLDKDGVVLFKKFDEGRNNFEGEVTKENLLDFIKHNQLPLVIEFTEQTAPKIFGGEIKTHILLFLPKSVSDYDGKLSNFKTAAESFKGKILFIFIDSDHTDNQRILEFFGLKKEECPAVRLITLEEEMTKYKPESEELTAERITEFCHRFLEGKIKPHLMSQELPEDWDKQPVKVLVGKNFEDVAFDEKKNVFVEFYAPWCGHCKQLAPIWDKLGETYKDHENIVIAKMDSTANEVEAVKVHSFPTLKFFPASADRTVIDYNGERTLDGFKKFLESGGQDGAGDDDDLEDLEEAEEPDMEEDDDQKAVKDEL

By IC50 is commonly meant the concentration that gives 50% inhibition. On to `COc1ccc(COC(=O)c2ccc(OC(=O)CCCc3ccc(NC(=O)c4ccccc4-c4ccc(C(F)(F)F)cc4)c(C(=O)N(C)C)c3)cc2)cc1` [Compound 1-96, 4-[4-(3-dimethylcarbamoyl-4-{(4′-trifluoromethylbiphenyl-2-carbonyl)amino}phenyl)butyryloxy]benzoic acid 4-methoxybenzyl ester], for which the IC50 was under 10 nM.

For `COC(=O)c1cc(C)c(OC(=O)CCCc2ccc(NC(=O)c3ccc(C)nc3-c3ccc(C(F)(F)F)cc3)c(C(=O)N(C)C)c2)c(C)c1` [Compound 1-65, 4-[4-(3-dimethylcarbamoyl-4-{[6-methyl-2-(4-trifluoromethylphenyl)pyridine-3-carbonyl]amino}phenyl)butyryloxy]-3,5-dimethylbenzoic acid methyl ester], the IC50 is under 10 nM.

Turning to `CN(C)C(=O)c1cc(CCCC(=O)Oc2ccc(C(=O)O)cc2)ccc1NC(=O)c1ccccc1-c1ccc(C(F)(F)F)cc1` [Compound 1-25, 4-(4-{3-dimethylcarbamoyl-4-[(4′-trifluoromethylbiphenyl-2-carbonyl)amino]phenyl}butyryloxy) benzoic acid], the IC50 fell in the range of 100 to 1000 nM.

Take `CCOC(=O)c1cc(OC)c(OC(=O)CCCc2ccc(NC(=O)c3ccc(C)nc3-c3ccc(C(F)(F)F)cc3)c(C(=O)N(C)C)c2)c(OC)c1` [Compound 1-43, 4-[4-(3-dimethylcarbamoyl-4-{[6-methyl-2-(4-trifluoromethylphenyl)pyridine-3-carbonyl]amino}phenyl)butyryloxy]-3,5-dimethoxybenzoic acid ethyl ester]: the half-maximal inhibitory concentration (IC50) is under 10 nM.

For the compound `COc1cc(C(=O)OC(C)C)cc(OC)c1OC(=O)CCCc1ccc(NC(=O)c2ccc(C)nc2-c2ccc(C(F)(F)F)cc2)c(C(=O)N(C)C)c1` [Compound 1-44, 4-[4-(3-dimethylcarbamoyl-4-{[6-methyl-2-(4-trifluoromethylphenyl)pyridine-3-carbonyl]amino}phenyl)butyryloxy]-3,5-dimethoxybenzoic acid isopropyl ester], the IC50 is under 10 nM.

For the compound `CCc1cc(C(=O)OC)ccc1OC(=O)CCCc1ccc(NC(=O)c2ccccc2-c2ccc(C(F)(F)F)cc2)c(C(=O)N(C)C)c1` [Compound 1-67, 4-[4-(3-dimethylcarbamoyl-4-{(4′-trifluoromethylbiphenyl-2-carbonyl)amino}phenyl)butyryloxy]-3-ethylbenzoic acid methyl ester], the IC50 is under 10 nM.

With `CCOC(=O)c1ccc(OC(=O)CCCc2ccc(NC(=O)c3ccccc3-c3ccc(C(F)(F)F)cc3)c(C(=O)N3CCCC3)c2)c(F)c1` [Compound 1-16, 3-fluoro-4-(4-{3-(pyrrolidine-1-carbonyl)-4-[(4′-trifluoromethylbiphenyl-2-carbonyl)amino]phenyl}butyryloxy)benzoic acid ethyl ester], the IC50 was under 10 nM.

Turning to `Cc1cccc(COC(=O)c2ccc(OC(=O)CCCc3ccc(NC(=O)c4ccc(C)nc4-c4ccc(C(F)(F)F)cc4)c(C(=O)N(C)C)c3)cc2)n1` [Compound 1-100, 4-[4-(3-dimethylcarbamoyl-4-{[6-methyl-2-(4-trifluoromethylphenyl)pyridine-3-carbonyl]amino}phenyl)butyryloxy]benzoic acid 6-methylpyridin-2-ylmethyl ester], the 50% inhibitory concentration (IC50) is under 10 nM.

`CC(=O)c1ccc(OC(=O)CCCc2ccc(NC(=O)c3ccccc3-c3ccc(C(F)(F)F)cc3)c(C(=O)N(C)C)c2)cc1` [Compound 1-22, 4-{3-dimethylcarbamoyl-4-[(4′-trifluoromethylbiphenyl-2-carbonyl)amino]phenyl}butyric acid 4-acetylphenyl ester] had an IC50 of 10 to 100 nM.

Compound `CN(C)C(=O)c1cc(CC(=O)Oc2ccccc2)ccc1NC(=O)c1ccccc1-c1ccc(C(F)(F)F)cc1` [Compound 1-3, {3-dimethylcarbamoyl-4-[(4′-trifluoromethylbiphenyl-2-carbonyl)amino]phenyl}acetic acid phenyl ester] registered an IC50 of 100 to 1000 nM.

As for `COC(=O)c1ccc(OC(=O)CCCc2ccc(NC(=O)c3ccccc3-c3ccc(C(=O)OC)cc3)c(C(=O)N(C)C)c2)cc1` [Compound 4-3, 2′-{2-dimethylcarbamoyl-4-[3-(4-methoxycarbonylphenoxycarbonyl)propyl]phenyl-carbamoyl}biphenyl-4-carboxylic acid methyl ester], the IC50 is under 10 nM.

In turn, `COC(=O)c1cc(C)c(OC(=O)CCCc2ccc(NC(=O)c3ccccc3-c3ccc(C(F)(F)F)cc3)c(C(=O)N(C)C)c2)c(C)c1` [Compound 1-64, 4-[4-(3-dimethylcarbamoyl-4-{(4′-trifluoromethylbiphenyl-2-carbonyl)amino}phenyl)butyryloxy]-3,5-dimethylbenzoic acid methyl ester] yielded an IC50 of under 10 nM.

Consider `COC(=O)c1ccc(OC(=O)CCCc2ccc(NC(=O)c3ccccc3-c3ccc(C(F)(F)F)cc3)c(C(=O)N(C)C)c2)c(C(F)(F)F)c1` [Compound 1-20, 4-(4-{3-dimethylcarbamoyl-4-[(4′-trifluoromethylbiphenyl-2-carbonyl)amino]phenyl}butyryloxy)-3-trifluoromethylbenzoic acid methyl ester], for which the IC50 lay within 10 to 100 nM.

In turn, `CC(C)OC(=O)COC(=O)c1ccc(OC(=O)CCCc2ccc(NC(=O)c3ccccc3-c3ccc(C(F)(F)F)cc3)c(C(=O)N(C)C)c2)cc1` [Compound 1-102] gave an IC50 of under 10 nM.

Compound `CN(C)C(=O)c1cc(CCCC(=O)Oc2ccc(C(=O)OCc3ccc(Cl)cc3)cc2)ccc1NC(=O)c1ccccc1-c1ccc(C(F)(F)F)cc1` [Compound 1-79, 4-[4-(3-dimethylcarbamoyl-4-{(4′-trifluoromethylbiphenyl-2-carbonyl)amino}phenyl)butyryloxy]benzoic acid 4-chlorobenzyl ester] had an IC50 of under 10 nM.

Turning to `COC(=O)c1ccc(OC(=O)CCCc2ccc(NC(=O)c3ccccc3-c3ccc(C(F)(F)F)cn3)c(C(=O)N(C)C)c2)cc1` [Compound 1-19, 4-(4-{3-dimethylcarbamoyl-4-[2-(5-trifluoromethylpyridin-2-yl)benzoylamino]phenyl}butyryloxy)benzoic acid methyl ester], the IC50 lay in the range of 10 to 100 nM.

In the case of `Cc1cccc(COC(=O)c2ccc(OC(=O)CCCc3ccc(NC(=O)c4ccccc4-c4ccc(C(F)(F)F)cc4)c(C(=O)N(C)C)c3)cc2)n1` [Compound 1-101, 4-[4-(3-dimethylcarbamoyl-4-{(4′-trifluoromethylbiphenyl-2-carbonyl)amino}phenyl)butyryloxy]benzoic acid 6-methylpyridin-2-ylmethyl ester], the IC50 is under 10 nM.

Compound `CCCOC(=O)c1ccc(OC(=O)CCCc2ccc(NC(=O)c3ccccc3-c3ccc(C(F)(F)F)cc3)c(C(=O)N(C)C)c2)cc1` [Compound 1-8, 4-(4-{3-dimethylcarbamoyl-4-[(4′-trifluoromethylbiphenyl-2-carbonyl)amino]phenyl}butyryloxy) benzoic acid propyl ester] had an IC50 of under 10 nM.

`COC(=O)c1cc(C(=O)OC(C)C)cc(C)c1OC(=O)CCCc1ccc(NC(=O)c2ccc(C)nc2-c2ccc(C(F)(F)F)cc2)c(C(=O)N(C)C)c1` [Compound 1-111, 4-[4-(3-dimethylcarbamoyl-4-{[6-methyl-2-(4-trifluoromethylphenyl)pyridine-3-carbonyl]amino}phenyl)butyryloxy]-5-methylisophthalic acid 1-isopropyl ester 3-methyl ester] had an IC50 of under 10 nM.

In the case of `CCOC(=O)c1ccc(OC(=O)CCCc2ccc(NC(=O)c3ccc(C)nc3-c3ccc(C(F)(F)F)cc3)c(C(=O)N(C)C)c2)cc1` [Compound 1-71, 4-[4-(3-dimethylcarbamoyl-4-{[6-methyl-2-(4-trifluoromethylphenyl)pyridine-3-carbonyl]amino}phenyl)butyryloxy]benzoic acid ethyl ester], the IC50 is under 10 nM.
